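Five concentrations, 48 hours, 96-well plates. GI50 is the concentration that inhibits growth by half.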 The source made the active and inactive calls. Cut-off read from the data, not from the text of the source: active = GI50 up to about 1.1 µM and inactive = higher.
Assays:
Test in all cases: inhibition of tumour cell growth, NCI panel, 48 h
[1] = tested on: SK-MEL-5
[2] = tested on: KM-20L2
[3] = tested on: SN12C
[4] = tested on: OVCAR-8
[5] = tested on: HT-29
[6] = tested on: HCT-15
[7] = tested on: COLO 205
[8] = tested on: U-251
[9] = tested on: SNB-78
[10] = tested on: SF-268
[11] = tested on: OVCAR-5
[12] = tested on: UO-31
[13] = tested on: DMS-114
[14] = tested on: M19-MEL
[15] = tested on: LXFL 529
[16] = tested on: SNB-75
[17] = tested on: HOP-62
[18] = tested on: CCRF-CEM
[19] = tested on: SK-MEL-2
[20] = tested on: HCC 2998
[21] = tested on: Malme-3M
[22] = tested on: SF-539
[23] = tested on: LOX IMVI
[24] = tested on: SK-MEL-28
[25] = tested on: DMS-273
[26] = tested on: DLD-1
[27] = tested on: A549
[28] = tested on: OVCAR-4
[29] = tested on: RPMI-8226
[30] = tested on: RXF 393
[31] = tested on: HCT-116
[32] = tested on: TK-10
[33] = tested on: 786-0
[34] = tested on: SF-295
[35] = tested on: IGROV-1
[36] = tested on: NCI-H23
[37] = tested on: MOLT-4
[38] = tested on: SW-620
[39] = tested on: RXF 631
[40] = tested on: CAKI-1
[41] = tested on: SK-OV-3
[42] = tested on: SNB-19
[43] = tested on: KM12
[44] = tested on: K562
[45] = tested on: ACHN
[46] = tested on: UACC-62
[47] = tested on: NCI-H226
[48] = tested on: OVCAR-3
[49] = tested on: A498
[50] = tested on: M14
[51] = tested on: EKVX
[52] = tested on: UACC-257
[53] = tested on: HOP-92
[54] = tested on: NCI-H460
[55] = tested on: NCI-H522
[56] = tested on: HOP-18
[57] = tested on: XF498
[58] = tested on: MCF7
[59] = tested on: HL-60
[60] = tested on: NCI/ADR-RES

CCCN(CCCC(NC(C)=O)C(=O)NCc1ccccc1)C(=O)NC (stereo not given)
GI50 [1]: > 100 µM (inactive)
GI50 [2]: > 100 µM (inactive)
GI50 [3]: > 100 µM (inactive)
GI50 [4]: > 100 µM (inactive)
GI50 [5]: > 100 µM (inactive)
GI50 [6]: > 100 µM
GI50 [7]: > 100 µM (inactive)
GI50 [8]: > 100 µM (inactive)
GI50 [9]: > 100 µM (inactive)
GI50 [10]: > 100 µM (inactive)
GI50 [11]: > 100 µM (inactive)
GI50 [12]: > 100 µM (inactive)
GI50 [13]: > 100 µM (inactive)
GI50 [14]: > 100 µM (inactive)
GI50 [15]: > 100 µM (inactive)
GI50 [16]: 13.7 µM (inactive)
GI50 [17]: > 100 µM (inactive)
GI50 [18]: > 100 µM (inactive)
GI50 [19]: > 100 µM (inactive)
GI50 [20]: > 100 µM (inactive)
GI50 [21]: > 100 µM (inactive)
GI50 [22]: > 100 µM (inactive)
GI50 [23]: > 100 µM (inactive)
GI50 [24]: > 100 µM (inactive)
GI50 [25]: > 100 µM (inactive)
GI50 [26]: > 100 µM (inactive)
GI50 [27]: > 100 µM (inactive)
GI50 [28]: > 100 µM (inactive)
GI50 [29]: > 100 µM (inactive)
GI50 [30]: > 100 µM (inactive)
GI50 [31]: > 100 µM (inactive)
GI50 [32]: > 100 µM (inactive)
GI50 [33]: > 100 µM (inactive)
GI50 [34]: > 100 µM (inactive)
GI50 [35]: > 100 µM (inactive)
GI50 [36]: > 100 µM (inactive)
GI50 [37]: > 100 µM (inactive)
GI50 [38]: > 100 µM (inactive)
GI50 [39]: > 100 µM (inactive)
GI50 [40]: > 100 µM (inactive)
GI50 [41]: > 100 µM (inactive)
GI50 [42]: > 100 µM (inactive)
GI50 [43]: > 100 µM (inactive)
GI50 [44]: > 100 µM (inactive)
GI50 [45]: > 100 µM (inactive)
GI50 [46]: > 100 µM (inactive)
GI50 [47]: > 100 µM (inactive)
GI50 [48]: > 100 µM (inactive)
GI50 [49]: > 100 µM (inactive)
GI50 [50]: > 100 µM (inactive)
GI50 [51]: > 100 µM (inactive)
GI50 [52]: > 100 µM (inactive)
GI50 [53]: > 100 µM (inactive)
GI50 [54]: > 100 µM (inactive)
GI50 [55]: > 100 µM (inactive)

COc1cc(-c2ccc(/N=N/c3ccc4c(S(=O)(=O)O)cc(S(=O)(=O)O)c(N)c4c3O)c(OC)c2)ccc1/N=N/c1ccc2c(S(=O)(=O)O)cc(S(=O)(=O)O)c(N)c2c1O
GI50 [1]: > 100 µM (inactive)
GI50 [2]: > 100 µM (inactive)
GI50 [3]: > 100 µM (inactive)
GI50 [4]: > 100 µM (inactive)
GI50 [5]: > 100 µM (inactive)
GI50 [6]: > 100 µM
GI50 [7]: > 100 µM (inactive)
GI50 [8]: > 100 µM (inactive)
GI50 [56]: > 44.3 µM (inactive)
GI50 [9]: > 100 µM (inactive)
GI50 [10]: > 100 µM (inactive)
GI50 [11]: > 91.2 µM (inactive)
GI50 [12]: > 100 µM (inactive)
GI50 [13]: > 100 µM (inactive)
GI50 [14]: > 100 µM (inactive)
GI50 [57]: 36.1 µM (inactive)
GI50 [16]: > 100 µM (inactive)
GI50 [17]: > 100 µM (inactive)
GI50 [18]: > 100 µM (inactive)
GI50 [19]: > 100 µM (inactive)
GI50 [20]: > 100 µM (inactive)
GI50 [21]: > 100 µM (inactive)
GI50 [22]: > 100 µM (inactive)
GI50 [23]: > 100 µM (inactive)
GI50 [24]: > 100 µM (inactive)
GI50 [58]: > 100 µM (inactive)
GI50 [25]: > 100 µM (inactive)
GI50 [26]: > 100 µM (inactive)
GI50 [27]: > 100 µM (inactive)
GI50 [28]: > 100 µM (inactive)
GI50 [29]: > 100 µM (inactive)
GI50 [30]: > 100 µM (inactive)
GI50 [31]: > 100 µM (inactive)
GI50 [34]: > 100 µM (inactive)
GI50 [35]: > 100 µM (inactive)
GI50 [36]: > 100 µM (inactive)
GI50 [37]: > 100 µM (inactive)
GI50 [38]: > 100 µM (inactive)
GI50 [59]: > 41.6 µM (inactive)
GI50 [41]: > 100 µM (inactive)
GI50 [42]: > 100 µM (inactive)
GI50 [43]: > 100 µM (inactive)
GI50 [44]: > 100 µM (inactive)
GI50 [46]: > 100 µM (inactive)
GI50 [47]: > 87.5 µM (inactive)
GI50 [48]: > 100 µM (inactive)
GI50 [49]: > 100 µM (inactive)
GI50 [60]: > 100 µM (inactive)
GI50 [51]: > 100 µM (inactive)
GI50 [52]: > 100 µM (inactive)
GI50 [53]: > 100 µM (inactive)
GI50 [54]: > 100 µM (inactive)
GI50 [55]: > 100 µM (inactive)

NC(=O)CCC(N=C(N)c1csc(C2OC(CO)C(O)C2O)n1)C(=O)O (stereo not given)
GI50 [1]: > 100 µM (inactive)
GI50 [2]: > 100 µM (inactive)
GI50 [3]: > 100 µM (inactive)
GI50 [4]: > 100 µM (inactive)
GI50 [5]: > 100 µM (inactive)
GI50 [6]: > 100 µM
GI50 [7]: > 100 µM (inactive)
GI50 [8]: > 100 µM (inactive)
GI50 [56]: < 0.01 µM (active)
GI50 [9]: > 100 µM (inactive)
GI50 [10]: > 100 µM (inactive)
GI50 [11]: > 100 µM (inactive)
GI50 [13]: > 100 µM (inactive)
GI50 [57]: > 100 µM (inactive)
GI50 [15]: > 100 µM (inactive)
GI50 [16]: > 100 µM (inactive)
GI50 [18]: > 100 µM (inactive)
GI50 [19]: > 100 µM (inactive)
GI50 [20]: > 100 µM (inactive)
GI50 [21]: > 100 µM (inactive)
GI50 [22]: > 100 µM (inactive)
GI50 [23]: > 100 µM (inactive)
GI50 [24]: > 100 µM (inactive)
GI50 [25]: > 100 µM (inactive)
GI50 [26]: > 100 µM (inactive)
GI50 [27]: > 100 µM (inactive)
GI50 [28]: > 100 µM (inactive)
GI50 [29]: > 100 µM (inactive)
GI50 [30]: > 100 µM (inactive)
GI50 [32]: > 100 µM (inactive)
GI50 [34]: > 100 µM (inactive)
GI50 [35]: > 100 µM (inactive)
GI50 [36]: > 100 µM (inactive)
GI50 [37]: > 100 µM (inactive)
GI50 [38]: > 100 µM (inactive)
GI50 [59]: > 100 µM (inactive)
GI50 [40]: > 100 µM (inactive)
GI50 [41]: > 100 µM (inactive)
GI50 [43]: > 100 µM (inactive)
GI50 [44]: > 100 µM (inactive)
GI50 [45]: > 100 µM (inactive)
GI50 [46]: > 100 µM (inactive)
GI50 [49]: > 100 µM (inactive)
GI50 [50]: > 100 µM (inactive)
GI50 [51]: > 100 µM (inactive)
GI50 [52]: > 100 µM (inactive)
GI50 [55]: > 100 µM (inactive)

Source: ChEMBL document CHEMBL1201862, “PubChem BioAssay data set” (2004)
